We go through 8 compounds from patent US12239711B2, “Cereblon ligands and bifunctional compounds comprising the same” (Arvinas Operations, Inc., priority 2014, dated 2025).

What all share (assay type): cell-based
One experiment relates to androgen receptor (AR). The experiment can be described thus: AR ELISA assay in LNCaP and/or VCaP cells. To be noted: 5 hours. As for the experimental part: 4. AR ELISA Assay Protocol for Table 6
Compounds were evaluated in this assay in LNCaP and/or VCaP cells utilizing similar protocols. The protocols used with VCaP cells are described below. The androgen receptor ELISA assay was performed using PathScani AR Sandwich ELISA (Cell Signaling Catalog #12850) according to the following assay steps:
VCaP cells were seeded at 40,000 cells/well at a volume of 100 μL/well in VCaP assay medium [Phenol red free RPMI (Gibco Cat #11835-030); 5% Charcoal Stripped (Dextran treated) FBS (Omega Scientific, Cat #FB-04); 1% penstrep (Life Technologies, Gibco Cat #: 10378-016)] in Corning 3904 plates. The cells were incubated for a minimum of 3 days. Cells were dosed with PROTACs diluted in 0.01% DMSO and the drug treatment was allowed for 5 hours.
AR ELISA (Cell Signaling) was performed as follows: 1× Cell Signaling Cell lysis buffer was made (Catalogue #9803; comes with the kit). Media from the treated wells is aspirated, and 100 μL 1× cell lysis buffer/well is added. The cells were placed on a shaker for 10 minutes at 4° C. Twenty microliters of lysate was transferred to 100 μl of Diluent in ELISA plate (0.15 μg/ml-0.075 μg/ml). The lysate-diluent mixture was shaken for 30 minutes at 37° C. Allow mouse AR antibody, anti-mouse antibody, TMB, and STOP solution to come to room temperature. The 1× ELISA buffer included in kit was made and loaded in the reservoir. Media from the plates was discarded, the ELISA plate tapped hard on paper towel, and washed 4×200 μl ELISA wash buffer using a plate washer.
One-hundred (100) μL/well of mouse AR detection Ab was added; the plates were covered and shaken at 37° C. for 1 hour; media was discarded from the plates, the plates were tapped on a paper towel, washed 4× with 200 μL ELISA wash buffer with a plate washer.
One-hundred (100) μL/well of anti-mouse—HRP conjugated Ab (comes with the kit) was added; the plates were covered and shaken at 37° C. for 30 minutes; the TMB reagent was allowed to come to room temperature; the media was discard from the plate, the plates were tapped on paper towl, washed 4× with 200 μL of ELISA wash buffer; the plates were tapped the plates on paper towl. One-hundred (100) μL of TMB was added and the plates shaken for 2 minutes—while watching for color development. One-hundred (100) μL Stop solution was added when light blue color developed. Plates were shaken and read at 450 nm.
Progression of prostate cancer in patients treated with anti-androgen therapy usually involves one of several mechanisms of enhanced Androgen Receptor (AR) signaling, including increased intratumoral androgen synthesis, increased AR expression and AR mutations. PROTACs (PROteolysis TArgeting Chimera), which use bi-functional molecules that simultaneously bind a target of choice and an E3 ligase, cause ubiquitination via induced proximity and degradation of the targeted, pathological protein. As opposed to traditional target inhibition, which is a competitive process, degradation is a progressive process. As such, it is less susceptible to increases in endogenous ligand, target expression, or mutations in the target. Thus, this technology appears to be ideal for addressing the mechanisms of AR resistance in patients with prostate cancer. Data was analyzed and plotted using GraphPad Prism software.

In the next experiment the target is T1, BRaf (Homo sapiens, UniProt P15056, V600E).
T1 construct: endogenous in cells; host or cells: A375 cells
The experiment can be described thus: BRaf protein degradation assay in A375 cells (western blot / In-Cell Western). To be noted: for Dmax: A-375. How it is done: 5. BRaf Protein In Vitro Degradation Assay (A375 Cells) of Table 7
A375 cells were cultured in ATCC DMEM+10% FBS in 12 well plates, and treated with indicated compound from Tables 1-41 or 0.1% DMSO vehicle control for 16 hours. Cells were harvested in Cell Signaling lysis buffer (Cat #9803) with the addition of Roche protease inhibitor tablets (Cat #11873580001), and lysates clarified by microcentrifugation. Proteins were separated by SDS-PAGE, and transferred onto nitrocellulose membranes using an Invitrogen iBlot system. Immunoblotting was performed for BRaf (Santa Cruz Cat #9002), CRAF (BD Cat #610151), and pErk (Cell Signaling Cat #9106). GAPDH (Cell Signaling Cat #2118) was used as a loading control. Quantification was carried out using the BioRad Image Lab 5 software.
6. BRaf In-Cell Western Cellular Degradation Assay (A375 Cells) of Table 7
A375 cells were cultured in ATCC DMEM+10% FBS in 96-well plates, and treated with indicated compounds from Tables-43 or 0.1% DMSO vehicle control for 72 hours. Cells were washed with PBS 1×, and affixed to plate using 4% PFA in phosphate buffered saline for 15 minutes; washed 1× and permeabilized using 0.1% Triton-X-100 in PBS for 5 minutes; washed 1× and blocked with LICOR blocker (Cat. #927-50000) for 1 hour. Cells were then incubated with B-Raf antibody (Santa Cruz Cat #9002, Santa Cruz Cat #528) and tubulin antibody (Sigma #T6074) in LICOR blocker for 18 hours. Cells were washed 3× prior to adding secondary antibodies (LICOR cat #926-32210 and 926-68071) and incubated for 1 hour. Cells were washed 3× and imaged using LICOR Odyssey Software.
For orientation: A western blot detects proteins with antibodies after separation by electrophoresis.

Another experiment concerns the target T2, BRD4 (Homo sapiens, UniProt O60885).
T2 construct: 22Rv-1 or VCaP cells were purchased from ATCC and cultured in Dulbecco's Modified Eagle's Medium; host or cells: 22Rv-1 or VCaP cells
The experiment can be described thus: BRD4 Western protocol in 22Rv-1 or VCaP cells. As to conditions: 16 hours, western blot. As for the experimental part: 7. BRD4 Western Protocol for Table 8
22Rv-1 or VCaP cells were purchased from ATCC and cultured in Dulbecco's Modified Eagle's Medium (ATCC), supplemented with 10% FBS (ATCC) and Penicillin/Streptomycin (Life Technologies). DMSO control and compound treatments (0.003 μM, 0.01 μM, 0.03 μM and 0.1 μM) were performed in 12-well plates for 16 hours. Cells were harvested, and lysed in RIPA buffer (50 mM Tris pH8, 150 mM NaCl, 1% Tx-100, 0.1% SDS, 0.5% sodium deoxycholate) supplemented with protease and phosphatase inhibitors. Lysates were clarified at 16,000 g for 10 minutes, and protein concentration was determined. Equal amount of protein (20 μg) was subjected to SDS-PAGE analysis and followed by immunoblotting according to standard protocols. The antibodies used were BRD4 (Cell Signaling #13440), and Actin (Sigma #5441). Detection reagents were Clarity Western ECL substrate (Bio-rad #170-5060).

Bounds are passed on as bounds.

T1 sequence (P15056 whole entry V600E): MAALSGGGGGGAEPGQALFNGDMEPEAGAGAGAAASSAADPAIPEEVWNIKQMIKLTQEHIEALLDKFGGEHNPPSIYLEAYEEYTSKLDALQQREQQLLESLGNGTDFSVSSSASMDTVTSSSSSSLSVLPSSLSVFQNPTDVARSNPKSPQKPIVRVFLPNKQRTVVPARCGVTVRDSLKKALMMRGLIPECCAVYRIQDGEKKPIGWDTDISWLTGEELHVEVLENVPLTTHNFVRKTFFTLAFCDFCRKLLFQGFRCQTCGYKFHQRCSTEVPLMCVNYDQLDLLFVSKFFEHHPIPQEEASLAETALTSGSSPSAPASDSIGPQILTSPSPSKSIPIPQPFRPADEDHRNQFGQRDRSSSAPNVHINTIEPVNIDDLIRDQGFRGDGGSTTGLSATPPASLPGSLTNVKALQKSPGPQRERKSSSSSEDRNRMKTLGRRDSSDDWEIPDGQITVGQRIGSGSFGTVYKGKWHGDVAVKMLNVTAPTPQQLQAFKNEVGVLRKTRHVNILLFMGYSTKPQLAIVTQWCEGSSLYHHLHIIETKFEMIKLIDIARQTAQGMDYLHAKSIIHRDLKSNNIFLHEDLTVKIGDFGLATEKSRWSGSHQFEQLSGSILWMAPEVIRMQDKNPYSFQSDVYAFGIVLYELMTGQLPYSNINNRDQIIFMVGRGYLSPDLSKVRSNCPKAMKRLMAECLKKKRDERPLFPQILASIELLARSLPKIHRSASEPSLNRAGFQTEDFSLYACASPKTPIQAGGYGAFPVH
T1 sequence (Q96SW2 whole entry partner): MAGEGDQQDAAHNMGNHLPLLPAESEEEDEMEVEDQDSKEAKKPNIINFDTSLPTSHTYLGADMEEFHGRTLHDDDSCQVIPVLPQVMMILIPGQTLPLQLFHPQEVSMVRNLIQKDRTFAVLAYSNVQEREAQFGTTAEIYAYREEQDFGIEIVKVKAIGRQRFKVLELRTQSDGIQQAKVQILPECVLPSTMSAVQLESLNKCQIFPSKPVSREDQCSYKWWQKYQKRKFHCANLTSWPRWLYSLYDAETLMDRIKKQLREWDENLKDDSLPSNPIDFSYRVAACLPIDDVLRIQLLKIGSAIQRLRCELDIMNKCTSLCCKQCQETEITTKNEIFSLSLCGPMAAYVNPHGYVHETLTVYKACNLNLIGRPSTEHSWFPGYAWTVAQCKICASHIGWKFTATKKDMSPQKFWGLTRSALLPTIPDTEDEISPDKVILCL

As to `CC1(C)[C@H](NC(=O)c2ccc(N3CCC(CCN4CCN(c5ncc6c(n5)C(=O)N(C5CCC(=O)NC5=O)C6=O)CC4)CC3)cc2)C(C)(C)[C@H]1Oc1ccc(C#N)c(Cl)c1` (mixture of isomers) [compound 52, (rac)-N-((1r,3r)-3-(3-chloro-4-cyanophenoxy)-2,2,4,4-tetramethylcyclobutyl)-4-(4-(2-(4-(6-(2,6-dioxopiperidin-3-yl)-5,7-dioxo-6,7-dihydro-5H-pyrrolo[3,4-d]pyrimidin-2-yl)piperazin-1-yl)ethyl)piperidin-1-yl)benzamide], in the experiment on androgen receptor (AR), the “AR Dmax” value is “B (50 <= B < 75)” and the DC50 is below 0.001 µM.

On BRaf, `O=C1CCC(N2C(=O)c3cc(N4CCN(c5ccc(-n6cc(-c7ccc8c(c7)CC/C8=N\O)c(-c7ccncc7)n6)cc5)CC4)cc(-c4ccccc4)c3C2=O)C(=O)N1` (stereo not shown) [compound 39, (E)-2-(2,6-dioxopiperidin-3-yl)-6-(4-(4-(4-(1-(hydroxyimino)-2,3-dihydro-1H-inden-5-yl)-3-(pyridin-4-yl)-1H-pyrazol-1-yl)phenyl)piperazin-1-yl)-4-phenylisoindoline-1,3-dione] gave a DC50 of 0.01 to 0.1 µM and a Dmax of 50 to 75%.

At BRaf, `Cc1cc2c(cc1N1CCN(c3ccc(-n4cc(-c5ccc6c(c5)CC/C6=N\O)c(-c5ccncc5)n4)cc3)CC1)C(=O)N(C1CCC(=O)NC1=O)C2=O` (stereo not shown) [compound 40, (E)-2-(2,6-dioxopiperidin-3-yl)-5-(4-(4-(4-(1-(hydroxyimino)-2,3-dihydro-1H-inden-5-yl)-3-(pyridin-4-yl)-1H-pyrazol-1-yl)phenyl)pipeiazin-1-yl)-6-methylisoindoline-1,3-dione] yielded a DC50 of 0.01 to 0.1 µM and a Dmax of at least 75%.

On to `O=C1CCC(N2C(=O)c3ccc(N4CCN(c5ccc(-n6cc(-c7ccc8c(c7)CC/C8=N\O)c(-c7ccncc7)n6)cc5)CC4)c(-c4ccccc4)c3C2=O)C(=O)N1` (stereo not shown) [compound 41, (E)-2-(2,6-dioxopiperidin-3-yl)-5-(4-(4-(4-(1-(hydroxyimino)-2,3-dihydro-1H-inden-5-yl)-3-(pyridin-4-yl)-1H-pyrazol-1-yl)phenyl)piperazin-1-yl)-4-phenylisoindoline-1,3-dione], for which, on BRaf, the DC50 was 0.01 to 0.1 µM and the Dmax is at least 75%.

On BRaf, `Cc1c(N2CCN(c3ccc(-n4cc(-c5ccc6c(c5)CC/C6=N\O)c(-c5ccncc5)n4)cc3)CC2)ccc2c1C(=O)N(C1CCC(=O)NC1=O)C2=O` (stereo not shown) [compound 42, (E)-2-(2,6-dioxopiperidin-3-yl)-5-(4-(4-(4-(1-(hydroxyimino)-2,3-dihydro-1H-inden-5-yl)-3-(pyridin-4-yl)-1H-pyrazol-1-yl)phenyl)piperazin-1-yl)-4-methylisoindoline-1,3-dione] came in with a DC50 of 0.01 to 0.1 µM and a Dmax of 50 to 75%.

On BRD4, `Cc1sc2c(c1C)C(c1ccc(Cl)cc1)=N[C@@H](CC(=O)Nc1ccc(OCCOCCOCCOCCNc3cccc4c3CN([C@H]3CCC(=O)NC3)C4=O)cc1)c1nnc(C)n1-2` [compound 43, 2-((R)-4-(4-chlorophenyl)-2,3,9-trimethyl-6H-thieno[3,2-f][1,2,4]triazolo[4,3-a][1,4]diazepin-6-yl)-N-(4-(2-(2-(2-(2-((1-oxo-2-((R)-6-oxopiperidin-3-yl)isoindolin-4-yl)amino)ethoxy)ethoxy)ethoxy)ethoxy)phenyl)acelamide] had a DC50 of at least 0.1 µM and a Dmax of 50 to 75%.

On BRD4, `Cc1sc2c(c1C)C(c1ccc(Cl)cc1)=N[C@@H](CC(=O)Nc1ccc(OCCOCCOCCOCCOc3cccc4c(=O)n(C5CCC(=O)NC5=O)c(C)nc34)cc1)c1nnc(C)n1-2` (stereo partly drawn) [compound 44, 2-((S)-4-(4-chlorophenyl)-2,3,9-trimethyl-6H-thieno[3,2-f][1,2,4]triazolo[4,3-a][1,4]diazepin-6-yl)-N-(4-(2-(2-(2-(2-((3-(2,6-dioxopiperidin-3-yl)-2-methyl-4-oxo-3,4-dihydroquinazolin-8-yl)oxy)ethoxy)ethoxy)ethoxy)ethoxy)phenyl)acetamide] returned a DC50 of at least 0.1 µM and a Dmax below 50%.

On BRD4, `Cc1sc2c(c1C)C(c1ccc(Cl)cc1)=N[C@@H](CC(=O)Nc1ccc(OCCOCCOCCOCCOc3ccc4c(=O)n(C5CCC(=O)NC5=O)c(C)nc4c3)cc1)c1nnc(C)n1-2` (stereo partly drawn) [compound 45, 2-((S)-4-(4-chlorophenyl)-2,3,9-trimethyl-6H-thieno[3,2-f][1,2,4]triazolo[4,3-a][1,4]diazepin-6-yl)-N-(4-(2-(2-(2-(2-((3-(2,6-dioxopiperidin-3-yl)-2-methyl-4-oxo-3,4-dihydroquinazolin-7-yl)oxy)ethoxy)ethoxy)ethoxy)ethoxy)phenyl)acetamide] had a DC50 of 0.01 to 0.1 µM and a Dmax of at least 75%.
